The source of these data is ChEMBL document CHEMBL5338713, “Discovery of pomalidomide-based PROTACs for selective degradation of histone deacetylase 8” (Eur J Med Chem, 2022).

Each structure is given as a SMILES string. The source made the active and inactive calls. The rule behind the calls is not given here.

One assay deals with T1, Histone deacetylase 8 (Homo sapiens) (UniProt Q9BY41).
T1 sequence (whole entry): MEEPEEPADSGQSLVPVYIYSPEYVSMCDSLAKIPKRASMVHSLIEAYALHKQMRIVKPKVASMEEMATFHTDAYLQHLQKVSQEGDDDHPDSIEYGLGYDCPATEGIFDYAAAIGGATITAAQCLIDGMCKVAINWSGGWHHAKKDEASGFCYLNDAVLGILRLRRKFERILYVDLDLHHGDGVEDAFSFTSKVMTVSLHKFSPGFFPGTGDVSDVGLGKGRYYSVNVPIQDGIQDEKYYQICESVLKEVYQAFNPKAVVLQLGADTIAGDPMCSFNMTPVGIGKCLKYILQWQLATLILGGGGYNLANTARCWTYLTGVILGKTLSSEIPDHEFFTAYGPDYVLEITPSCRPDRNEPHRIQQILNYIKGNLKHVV
Description: Induction of HDAC8 degradation in human HCT-116 cells at 5 uM by Western blot analysis relative to control. Format: cell-based.
Details: not given
On to `O=C(COc1ccc(CCNC(=O)c2cccc(C(=O)NO)c2)cc1)NCCCCCNc1cccc2c1C(=O)N(C1CCC(=O)NC1=O)C2=O` (configuration not stated), for which the Activity amounted to 10.7%. Same read-out and setting: as for `O=C(CCCCCOc1ccc(CCNC(=O)c2cccc(C(=O)NO)c2)cc1)NCCNc1cccc2c1C(=O)N(C1CCC(=O)NC1=O)C2=O` (configuration not stated), the figure is 72.9%. The same measure, in the same setting: as for `O=C(CCCCOc1ccc(CCNC(=O)c2cccc(C(=O)NO)c2)cc1)NCCCCCCNc1ccc2c(c1)C(=O)N(C1CCC(=O)NC1=O)C2=O` (configuration not stated), the figure is 68.9%; as for `O=C(CCCCCOc1ccc(CCNC(=O)c2cccc(C(=O)NO)c2)cc1)NCCCNc1cccc2c1C(=O)N(C1CCC(=O)NC1=O)C2=O` (configuration not stated), 16.9%. The same measure, in the same setting: as for `O=C1CCC(N2C(=O)c3cccc(N4CCN(C5CN(C(=O)CCCCOc6ccc(CCNC(=O)c7cccc(C(=O)NO)c7)cc6)C5)CC4)c3C2=O)C(=O)N1` (configuration not stated), the figure is 39.5%; as for `O=C1CCC(N2C(=O)c3cccc(N4CCN(CC5CCN(C(=O)CCCCOc6ccc(CCNC(=O)c7cccc(C(=O)NO)c7)cc6)CC5)CC4)c3C2=O)C(=O)N1` (configuration not stated), 43.6%; as for `O=C(CCCOc1ccc(CCNC(=O)c2cccc(C(=O)NO)c2)cc1)NCCCNc1cccc2c1C(=O)N(C1CCC(=O)NC1=O)C2=O` (configuration not stated), 21.2%. On to `O=C(COc1ccc(CCNC(=O)c2cccc(C(=O)NO)c2)cc1)NCCNc1cccc2c1C(=O)N(C1CCC(=O)NC1=O)C2=O` (configuration not stated), for which the Activity worked out at 25.8%. As to `O=C1CCC(N2C(=O)c3cccc(N4CCC(N5CCN(C(=O)CCCCOc6ccc(CCNC(=O)c7cccc(C(=O)NO)c7)cc6)CC5)CC4)c3C2=O)C(=O)N1` (configuration not stated), the Activity came out at 74.4%.

As to `O=C1CCC(N2C(=O)c3cccc(N4CCC(CN5CCN(C(=O)CCCCOc6ccc(CCNC(=O)c7cccc(C(=O)NO)c7)cc6)CC5)CC4)c3C2=O)C(=O)N1` (configuration not stated), the Activity stood at 48.3%. Still for that read-out and setting: as for `O=C(CCCCOc1ccc(CCNC(=O)c2cccc(C(=O)NO)c2)cc1)NCCNc1cccc2c1C(=O)N(C1CCC(=O)NC1=O)C2=O` (configuration not stated), the figure is 52.5%; as for `O=C(CCCOc1ccc(CCNC(=O)c2cccc(C(=O)NO)c2)cc1)NCCCCNc1cccc2c1C(=O)N(C1CCC(=O)NC1=O)C2=O` (configuration not stated), 20.8%. Same read-out and setting: as for `O=C(CCCOc1ccc(CCNC(=O)c2cccc(C(=O)NO)c2)cc1)NCCNc1cccc2c1C(=O)N(C1CCC(=O)NC1=O)C2=O` (configuration not stated), the figure is 44.3%.

Turning to `O=C(CCCCOc1ccc(CCNC(=O)c2cccc(C(=O)NO)c2)cc1)NCCCCCNc1cccc2c1C(=O)N(C1CCC(=O)NC1=O)C2=O` (configuration not stated), the Activity came to 72.9%. Same read-out and setting: as for `O=C(CCCCCOc1ccc(CCNC(=O)c2cccc(C(=O)NO)c2)cc1)NCCCCCNc1cccc2c1C(=O)N(C1CCC(=O)NC1=O)C2=O` (configuration not stated), the figure is 51.7%.

For `O=C(COc1ccc(CCNC(=O)c2cccc(C(=O)NO)c2)cc1)NCCCCCCNc1cccc2c1C(=O)N(C1CCC(=O)NC1=O)C2=O` (configuration not stated), the Activity worked out at 54.5%.

Turning to `O=C1CCC(N2C(=O)c3cccc(N4CC(N5CCN(C(=O)CCCCOc6ccc(CCNC(=O)c7cccc(C(=O)NO)c7)cc6)CC5)C4)c3C2=O)C(=O)N1` (configuration not stated), the Activity is 59.6%. The same measure, in the same setting: as for `O=C1CCC(N2C(=O)c3cccc(N4CCN(C5CCN(C(=O)CCCCOc6ccc(CCNC(=O)c7cccc(C(=O)NO)c7)cc6)CC5)CC4)c3C2=O)C(=O)N1` (configuration not stated), the figure is 43.2%; as for `O=C1CCC(N2C(=O)c3cccc(N4CCN(CC5CN(C(=O)CCCCOc6ccc(CCNC(=O)c7cccc(C(=O)NO)c7)cc6)C5)CC4)c3C2=O)C(=O)N1` (configuration not stated), 6.54%.

Take `O=C(CCCCCCOc1ccc(CCNC(=O)c2cccc(C(=O)NO)c2)cc1)NCCCNc1cccc2c1C(=O)N(C1CCC(=O)NC1=O)C2=O` (configuration not stated): the Activity is 30.5%. The same measure, in the same setting: the same measure for `O=C(CCCCOc1ccc(CCNC(=O)c2cccc(C(=O)NO)c2)cc1)NCCCCNc1cccc2c1C(=O)N(C1CCC(=O)NC1=O)C2=O` (configuration not stated): 53%.

Regarding `O=C(COc1ccc(CCNC(=O)c2cccc(C(=O)NO)c2)cc1)NCCCCNc1cccc2c1C(=O)N(C1CCC(=O)NC1=O)C2=O` (configuration not stated), the Activity came to 43.6%. Same read-out and setting: as for `O=C(CCCOc1ccc(CCNC(=O)c2cccc(C(=O)NO)c2)cc1)NCCCCCCNc1cccc2c1C(=O)N(C1CCC(=O)NC1=O)C2=O` (configuration not stated), the figure is 49.6%; as for `O=C(CCCCCOc1ccc(CCNC(=O)c2cccc(C(=O)NO)c2)cc1)NCCCCNc1cccc2c1C(=O)N(C1CCC(=O)NC1=O)C2=O` (configuration not stated), 24.4%; as for `O=C(CCCCCOc1ccc(CCNC(=O)c2cccc(C(=O)NO)c2)cc1)NCCCCCCNc1cccc2c1C(=O)N(C1CCC(=O)NC1=O)C2=O` (configuration not stated), 45.2%. Same read-out and setting: the same measure for `O=C(CCCCCCOc1ccc(CCNC(=O)c2cccc(C(=O)NO)c2)cc1)NCCCCNc1cccc2c1C(=O)N(C1CCC(=O)NC1=O)C2=O` (configuration not stated): 19.8%; for `Nc1cccc2c1C(=O)N(C1CCC(=O)NC1=O)C2=O` (configuration not stated): -11%; for `O=C1CCC(N2C(=O)c3cccc(N4CC(CN5CCN(C(=O)CCCCOc6ccc(CCNC(=O)c7cccc(C(=O)NO)c7)cc6)CC5)C4)c3C2=O)C(=O)N1` (configuration not stated): 56.3%.

Consider `O=C(NO)c1cccc(C(=O)NCCc2ccccc2)c1`, for which the Activity is -22%.

As for `O=C(CCCOc1ccc(CCNC(=O)c2cccc(C(=O)NO)c2)cc1)NCCCCCNc1cccc2c1C(=O)N(C1CCC(=O)NC1=O)C2=O` (configuration not stated), the Activity was 33.4%. With `O=C(CCCCCCOc1ccc(CCNC(=O)c2cccc(C(=O)NO)c2)cc1)NCCNc1cccc2c1C(=O)N(C1CCC(=O)NC1=O)C2=O` (configuration not stated), the Activity turned out to be 65.2%. For `O=C(COc1ccc(CCNC(=O)c2cccc(C(=O)NO)c2)cc1)NCCCNc1cccc2c1C(=O)N(C1CCC(=O)NC1=O)C2=O` (configuration not stated), the Activity was 32%.

Consider `O=C(CCCCCCOc1ccc(CCNC(=O)c2cccc(C(=O)NO)c2)cc1)NCCCCCNc1cccc2c1C(=O)N(C1CCC(=O)NC1=O)C2=O` (configuration not stated), for which the Activity is 23.7%.

Consider `O=C(CCCCOc1ccc(CCNC(=O)c2cccc(C(=O)NO)c2)cc1)NCCCNc1cccc2c1C(=O)N(C1CCC(=O)NC1=O)C2=O` (configuration not stated), for which the Activity stood at 25.8%. Still for that read-out and setting: as for `O=C1CCC(N2C(=O)c3cccc(N4CCN(C(=O)CCCCOc5ccc(CCNC(=O)c6cccc(C(=O)NO)c6)cc5)CC4)c3C2=O)C(=O)N1` (configuration not stated), the figure is 57.9%. `O=C(CCCCCCOc1ccc(CCNC(=O)c2cccc(C(=O)NO)c2)cc1)NCCCCCCNc1cccc2c1C(=O)N(C1CCC(=O)NC1=O)C2=O` (configuration not stated): the Activity was 25.6%.

The target of another assay is Protein cereblon/Histone deacetylase 8 (Homo sapiens) (UniProt Q9BY41+Q96SW2). Description: PROTAC activity at HDAC8/CRBN in human HCT-116 cells assessed as degradation of HDAC8 at 5 uM by Western blot analysis. The class given is cell-based.
Protein cereblon/Histone deacetylase 8 (Homo sapiens), sequence (Q96SW2 whole entry, looked up, one chain of several): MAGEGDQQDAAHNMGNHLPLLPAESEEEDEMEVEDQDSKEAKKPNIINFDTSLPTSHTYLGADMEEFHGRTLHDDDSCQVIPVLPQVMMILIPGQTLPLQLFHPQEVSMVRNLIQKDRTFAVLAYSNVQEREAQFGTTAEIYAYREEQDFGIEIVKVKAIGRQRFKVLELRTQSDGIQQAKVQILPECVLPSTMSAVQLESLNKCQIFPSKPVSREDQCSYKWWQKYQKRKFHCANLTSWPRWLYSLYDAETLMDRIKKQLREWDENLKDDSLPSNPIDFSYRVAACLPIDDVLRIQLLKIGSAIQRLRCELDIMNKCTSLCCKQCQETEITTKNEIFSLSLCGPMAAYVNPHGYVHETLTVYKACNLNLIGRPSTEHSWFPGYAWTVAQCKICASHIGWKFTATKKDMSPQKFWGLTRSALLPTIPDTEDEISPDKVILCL
Details: not given
As for `O=C(CCCCOc1ccc(CCNC(=O)c2cccc(C(=O)NOC3CCCCO3)c2)cc1)NCCCCCCNc1cccc2c1C(=O)N(C1CCC(=O)NC1=O)C2=O` (configuration not stated), the outcome was inactive. On to `CN1C(=O)CCC(N2C(=O)c3cccc(NCCCCCCNC(=O)CCCCOc4ccc(CCNC(=O)c5cccc(C(=O)NO)c5)cc4)c3C2=O)C1=O` (configuration not stated), for which the result was inactive.

The next assay deals with T1, Histone deacetylase 8 (Homo sapiens). Description: Induction of HDAC8 degradation in human HCT-116 cells assessed as maximum degradation at 0.1 to 160 uM measured after 10 hrs by Western blot analysis relative to control. Format: cell-based. Conditions: dose 0.1-160 µM.
Regarding `O=C(CCCCOc1ccc(CCNC(=O)c2cccc(C(=O)NO)c2)cc1)NCCCCCCNc1ccc2c(c1)C(=O)N(C1CCC(=O)NC1=O)C2=O` (configuration not stated), the Emax is 77%. Same read-out and setting: the same measure for `O=C1CCC(N2C(=O)c3cccc(N4CCC(N5CCN(C(=O)CCCCOc6ccc(CCNC(=O)c7cccc(C(=O)NO)c7)cc6)CC5)CC4)c3C2=O)C(=O)N1` (configuration not stated): 91%.

For a further assay, the target named is T2, Histone deacetylase 8 (Homo sapiens, UniProt Q9BY41).
T2 sequence (Q9BY41 whole entry): T1 sequence (whole entry)
Description: Induction of HDAC8 degradation in human HCT-116 cells measured after 10 hrs by Western blot analysis. The class given is cell-based.
Details: not given
The molecule `O=C(CCCCOc1ccc(CCNC(=O)c2cccc(C(=O)NO)c2)cc1)NCCCCCCNc1ccc2c(c1)C(=O)N(C1CCC(=O)NC1=O)C2=O` (configuration not stated) had a DC50 of 441 nM. Consider `O=C1CCC(N2C(=O)c3cccc(N4CCC(N5CCN(C(=O)CCCCOc6ccc(CCNC(=O)c7cccc(C(=O)NO)c7)cc6)CC5)CC4)c3C2=O)C(=O)N1` (configuration not stated), for which half-maximal degradation (DC50) was put at 876 nM.
